In patent publication US8951527B2, “Radioprotectants targeting thrombospondin-1 and CD47” (The United States of America, as represented by the …, priority 2008, dated 2015):
Entries after “also recorded” stand apart in the source; their conditions may differ.

What was measured:
C57BL/6 wild type mice [1] = assay: Hindlimb irradiation (25 Gy), skin reaction / tissue necrosis grading and histology; assay type: in vivo, mouse; details: for skin reaction / tissue damage of irradiated hindlimb: 10 μM in 750 μl PBS local-regional
Method: FIG. 16. CD47 suppression using an antisense morpholino minimizes tissue damage from radiation injury. Age and sex matched C57BL16 wild type mice underwent a one-time treatment of the right hindlimb with either a murine specific CD47 morpholino oligonucleotide (10 μM in 750 μl PBS) or 750 μl of PBS injected local-regionally to the muscle and soft tissues. […] At the end of 8 weeks, there was a considerable amount of alopecia, dry desquamation and early signs of fibrotic contractures within the irradiated hind limbs of mice receiving only PBS. […] The tissue necrosis grading scores for 8 animals are presented as mean±SD (FIG. 16B) and show a similar trend throughout the 8-week observation period.
Skin reaction: Skin reaction following hind limb irradiation was quantified every week following treatment for 8 weeks using a previously described grading system (Flanders et al., Am J Pathol 163:2247-2257, 2003). The grading system consisted of 5 categories: normal, hair loss, erythema, dry desquamation and moist desquamation/ulceration.
Irradiation of mice: Age and sex matched wild type mice underwent local irradiation to the right hindlimb as described in Example 1. Forty-eight hours prior to irradiation, animals received the CD47 morpholino (SEQ ID NO: 4), a control morpholino (SEQ ID NO: 5) (both at 10 μM in […] PBS via intramuscular injection), vehicle, or no treatment to the hind limb. Under 1% isoflurane inhalation anesthesia, the animals were placed in customized Lucite jigs that allow for immobilization and selective irradiation of the right hindlimb. A single radiation dose of 25 Gy was delivered by a Therapax® DXT300 X-ray irradiator (Pantak, Inc., East Haven, Conn.) using 2.0-mm A1 filtration (300 kVp) at a dose rate of 2.53 Gy/min. Care was taken to avoid irradiation of other body parts by using lead shields specifically designed as a part of the jigs. After irradiation, the animals were placed in cages as indicated above and observed weekly. Skin reaction after hind limb irradiation was quantified every week after treatment for 8 weeks using a previously described grading system (Flanders et al., Am J. Pathol 163:2247-2257, 2003). Briefly, tissue necrosis grading system consists of 5 categories: normal, hair loss, erythema, dry desquamation, and moist desquamation/ulceration.
Age and sex matched C57BL16 wild type mice underwent a one-time treatment of the right hindlimb with the CD47 antisense morpholino oligonucleotide (10 μM in 750 μl PBS), a mismatched control morpholino, or vehicle (PBS) injected local-regionally to the muscle and soft tissues.

C57BL/6 wild type mice [2] = assay: Tissue apoptosis (TUNEL) in irradiated hindlimb muscle and bone marrow; assay type: in vivo, mouse; details: morpholino 48 hours before 25 Gy, 24 hours post-radiation
Method: FIG. 17. Therapeutic suppression of CD47 prevents radiation-induced apoptosis in muscle and bone marrow. The presence of apoptosis was detected by the TUNEL method as brown nuclear staining. Non-irradiated control hindlimbs (upper panels) and hindlimbs irradiated for a total of 25 Gy all from age and sex matched C57BL/6 wild type mice were prepared for paraffin-embedded tissue sections 24 hours post-radiation and were examined for the presence of apoptotic nuclei. Mice hindlimbs injected with the CD47 morpholino (bottom panels) 48 hours prior to radiation were also prepared in the same manner 24 hours post-radiation. Apoptosis is inferred by intranuclear staining of muscle and bone marrow cells. Images were acquired using a 20× objective.
Tissue apoptosis: The ApopTag in situ detection kit (Chemicon, Millipore, Mass.) was employed following the manufacturer's recommendations In brief, sections undergo deparaffinization, rehydration and washing, followed by treatment with 20 μg/ml of proteinase K for 15 minutes at room temperature and repeat washing. Endogenous peroxidase activity was quenched with 3% H2O2 in PBS for 5 minutes. The 3′-hydroxy DNA strand breaks were enzymatically labeled with digoxygenin nucleotide via TdT and incubated for 1 hour at 37° C., and the reaction terminated with a stop buffer. […]

HUVEC = HUVEC cell viability after irradiation (MTT / CellTiter 96); assay type: cell-based, human
Method: FIG. 11. Radioprotective activities of TSP1 and CD47 antibodies, a CD47 binding peptide from TSP1, and a CD47 morpholino. HUVEC were plated on 96-well plates in standard growth medium. Cells were treated with TSP1 (FIG. 11A) or CD47 (FIG. 11B) monoclonal antibodies (clone A6.1 or B6H12, respectively) and received the indicated doses of radiation 24 hours after addition of the antibodies. Cell (mitochondrial) viability was measured 48 hours post irradiation using an MTT assay. Cells were treated using peptide 7N3 (FIG. 11C) and control peptide 604 (FIG. 11D), subjected to the same experimental conditions, and assayed via MTT. […] Experiments were repeated 3 times and results presented as the mean±SD.
(§1) FIG. 12. Peptides 7N3 and C6d are radioprotective to HUVEC in culture. Human umbilical vein endothelial cells (HUVEC) grown in EGM medium in 96-well plates were treated with graded doses of a peptide agent, as indicated. One hour later, cells were exposed to a single dose of gamma radiation (0, 10, 20, 30, and 40 Gray) and allowed to incubate 72 hours at 37° C. Cell viability was determined with the CellTiter 96 AQueous One Solution Cell Proliferation Assay.
Cell Viability Assay. HUVEC were plated at a density of 5000 cells/well in 96 well plates (Nunc), and were treated 24 hours later with either the indicated doses of a CD47 antibody (B6H12), a TSP1 antibody (A6.1), the CD47-binding peptide 7N3, or control peptide 604. One hour later the cells were exposed to a single dose of gamma radiation (0, 10, 20, 30, and 40 Gy) and allowed to incubate another 72 hours at 37° C. Experiments done with B16E10 melanoma cells in Example 4 were done in a similar manner treating either 1 hour prior to a single dose of radiation (10 Gy) with peptide 7N3 or 48 hours prior with CD47 morpholino. Cell viability was determined using the CellTiter 96 Aqueous One Solution cell proliferation assay (Promega, Madison, Wis.) as per the manufacturer's instructions and absorbance at 490 nm was determined using an MR580 Microelisa AutoReader (Dynatech, Alexandria, Va.). The same assay was performed on HUVEC using either the CD47 or CD36 morpholino, but 48 hours were allowed to pass prior to radiation (0 or 40 Gy) to allow for suppression of the target proteins. Similarly, control experiments were performed using the nitric oxide synthase (NOS) inhibitor L-NAME, a membrane permeable cGMP analogue, 8-Bromo cGMP, or the NO donor DETA/NO.
as §1, with “In an additional experiment to test the effect of” for “FIG. 12. Peptides 7N3 and C6d are”, “peptides, human” for “to HUVEC in culture. Human”

Sequence: CGTCACAGGCAGGACCCACTGCCCA (all phosphorodiamidate morpholino (PMO)) [CD47 morpholino, CD47 targeting morpholino oligonucleotide]
- skin reaction / tissue damage of irradiated hindlimb (C57BL/6 wild type mice [1]; 48 hours before 25 Gy, 8 weeks): little to no alopecia, ulceration, or desquamation
- skin reaction / tissue damage of irradiated hindlimb (C57BL/6 wild type mice [1]; 48 hours before 25 Gy, 8 weeks, listed as CD47 targeting morpholino): minimal to no alopecia, ulceration, and desquamation
- H&E of treated hindlimb skeletal muscle (C57BL/6 wild type mice [1]; 25 Gy, results not shown): muscle cell survival and hypertrophy
- hindlimb contracture due to fibrosis (C57BL/6 wild type mice [1]; 48 hours before 25 Gy, 8 weeks): minimal contracture due to fibrosis
- apoptosis (TUNEL) in bone marrow (C57BL/6 wild type mice [2]): tissue protection extended to the bone marrow compartment
- apoptosis (TUNEL) in skeletal muscle (C57BL/6 wild type mice [2]): minimum cell death (apoptosis)
- cell survival of irradiated HUVEC with L-NAME co-incubation (HUVEC; co-incubation of L-NAME and CD47 morpholino ± radiation (FIG. 22C)): enhancing cell survival
- cell viability post radiation after morpholino pretreatment (HUVEC; morpholino 48 hours before radiation (FIG. 11E, F)): granted protection against cell death; also recorded: resistant to radiation-driven cell death
